What was measured:
A delta nociceptors = assay: Laser pin prick pain threshold (A delta fibers) of healthy volunteer after topical capsaicin; type: in vivo, human; conditions: beam 1 mm, 20 minutes after topical capsaicin on skin
Text: The following is a description a typical test procedure utilizing the present invention with the application of protocol Example 1 for healthy volunteers and pain patients:
Step 1: Preparing volunteer for test. The volunteers were asked to respond to stimuli after each stimulus was applied, and describing the level and type of evoked sensation, location of sensation, how long the sensation lasts, whether the sensation was single (monomodal) or if more than one sensation were evoked by stimulation.
Step 2: The level of power of laser was adjusted to skin type of volunteer and irradiated spot was selected as close as possible to A-delta receptors.
Collimated beam with diameter 2 mm, within range of power 5.0-10.0 W and pulse duration 100 ms is applied to an investigated area of skin to determine the individual sensitivity and to map the location of A delta nociceptors. The power is increased with step 0.5 W until the first sensation is evoked. After that, the pulse power is fixed and the position of the irradiated spot is scanned (tuned) within an XY frame 5 mm×5 mm to find the location of the nociceptor and pulse power is applied for each new location with spatial steps of around 0.5 mm for fingertips.
The inter-stimulus time was at least 20 sec. The first appeared sensation was rated by the volunteer as barely pricking pain without any other sensations of warmth or hot pain.
After the location of receptors were determined, the summation curve—Power of Pain Threshold vs. Pulse Duration were measured by the following procedure: • 1) Collimated beam was adjusted to 1 mm, • 2) Duration of pulse set up to 50 ms and pulse power was increased from 2 W until volunteer reported about first appeared sensation. • 3) Afterwards, power was increased until volunteer reported that sensation became clearly painful, but decreasing of power of stimulus on 5-10% leads to the disappearance of pain. • 4) Afterward, the power threshold was measured for 50 ms pulse duration was increased by step 50 ms and procedure measurement of threshold was repeated. The increment of power was 0.1 W.
The healthy volunteer was tested with pulse durations from 50 ms to 300 ms and beam size of 1 mm. The volunteer reported what around 200-300 ms, they felt on the same level of power firstly warmth and after that pricking pain but for pulses within range 50-150 ms, only single (monomodal) pricking pain was discerned. The sensations were sharp and disappeared in a few seconds after stimulation. The next stimulus was applied not earlier than 20 sec or after the disappearance of painful sensation of previous stimulus.
The thresholds of pin prick pain of healthy volunteers were measured in 20 minutes after topical analgesic (capsaicin) was applied on skin. The Steps 2, 3 and 4 were repeated.

C fibers = assay: Laser threshold pulse duration for hot pain (stimulation of C fibers), hairy skin of left hand; type: in vivo, human
Experimental: Subjects: A chronic pain patient with hypersensitivity and a healthy volunteer were tested. Both subjects gave informed consent and the experiments were approved by the local institutional review board. The hairy skin of left hand was used for both volunteers. In preparing the subjects testing, they were asked to respond orally immediately after they perceived any threshold sensation and/or to interrupt lasing pulse by pressing STOP button. They then described the level and type of evoked sensation, location of sensation, how long the sensation lasted, whether the sensation was single (monomodal) sensation or if there were more than one evoked sensations by a single stimulation. Afterwards, the threshold pulse was applied 3 times to different areas with interval of {tilde over ( )}3 min or after the previous sensation (pain) had disappeared. The appearance redness was an indication of skin irritation.
Step 1: To test duration of pulse that evoked threshold warmth sensation only, the output power was set to 1.5 W, beam size adjusted to 5 mm. The pulse was applied to the skin. When the volunteer reported warmth (pain) sensation the lasing was stopped. […]
The laser radiation was stopped by volunteer. […] When this button was pushed the command “stop lasing” was activated, duration of applied pulse was measured and it was indicated on the screen of PC connected to the device by RS232 interface. […]

A delta and C fibers = assay: Skin biopsies processed with PGP 9.5 biomarker, integral fiber density of A delta and C fibers in epidermis and dermis; type: in vivo, human; conditions: biopsies 7 days after treatment with 8% capsaicin patch
Text: In 7 days after treatment additional biopsies from laser and capsaicin treated areas together with control were taken and “blindly” processed with PGP 9.5 biomarker to determine the integral fiber density of the A delta and C fibers in epidermis and dermis.

[1] = cited from earlier work
C fiber mediated pain = conditions: in vivo; cited from earlier work

COc1cc(CNC(=O)CCCC/C=C/C(C)C)ccc1O [capsaicin]
Power of Pain Thresholds of Healthy Volunteer (Capsaicin) (A delta nociceptors; pulse duration 50 ms, untreated healthy volunteer 9.5 W): 14.8 W
Power of Pain Thresholds of Healthy Volunteer (Capsaicin) (A delta nociceptors; pulse duration 100 ms, untreated healthy volunteer 4.5 W): 7.0 W
Power of Pain Thresholds of Healthy Volunteer (Capsaicin) (A delta nociceptors; pulse duration 150 ms, untreated healthy volunteer 3.2 W): 5 W
Power of Pain Thresholds of Healthy Volunteer (Capsaicin) (A delta nociceptors; pulse duration 200 ms, untreated healthy volunteer 2.8 W): 4.3 W
Power of Pain Thresholds of Healthy Volunteer (Capsaicin) (A delta nociceptors; pulse duration 300 ms, untreated healthy volunteer 2.5 W): 3.9 W
threshold pulse duration, hot pain (C fibers; power 1.5 W, beam 5 mm, healthy volunteer affected topical capsaicin, stop button, untreated healthy volunteer 1300 ms): 800 ms
effect on thresholds of warmth sensation and hot/burning pain (C fibers; topical capsaicin): decreases the thresholds of warmth sensation and hot/burning pain
fiber density below control (A delta and C fibers): 10 to 20%
residual time ([1]; capsaicin solution used to stimulate neurogenic flare): over 48 hours
duration of capsaicin induced flare ([1]; in vivo): over several hours
residual time of capsaicin in the skin ([1]; patch application): 48 h

CN1CC[C@]23c4c5ccc(O)c4O[C@H]2[C@@H](O)C=C[C@H]3[C@H]1C5 [morphine]
inhibition of C fiber mediated pain vs A delta fiber mediated pain (C fiber mediated pain): much more effective in inhibiting C fiber mediated pain than A delta fiber mediated pain

— patent US20190008440A1, “Method and device to investigate or treat painful neuropathy” (priority 2017, published 2019)
